Laboratory results reported in US7008632B2, “Combination of biological and chemical agents to combat rodents” (priority 2000, dated 2006).
Marks after values point to notes of the source that are not given here.

What was measured:
Rattus norvegicus = details: non-resistant rats; cited from earlier work
[1] = test system: feral adult brown rats (Rattus norvegicus); assay: Experiment using feral adult brown rats: mortality after gavage of sporocysts, coumatetralyl or the combination; assay type: in vivo; details: single gavage; 10 000 sporocysts and/or 6 mg of coumatetralyl per kg of body weight
Protocol: Experiment Using Feral Adult Brown Rats (Rattus norvegicus)
The mortality was determined.
The rats were raised under standard conditions in the laboratory. During the experiment and the 2-week preparation, they were kept individually in cages made of Makrolon. Sporocyst suspension and coumatetralyl were administered by gavage, and during the administration the animals were anesthetized lightly using diethyl ether.

SMILES	LD50 (acute oral) (Rattus norvegicus) [mg/kg]	Mortality % [1]
O=c1oc2ccccc2c(O)c1C1CC(c2ccc(-c3ccc(Br)cc3)cc2)Cc2ccccc21 (stereo not drawn) [brodifacoum]	0.2	–
O=c1oc2ccccc2c(O)c1C(CC(O)c1ccc(-c2ccc(Br)cc2)cc1)c1ccccc1 (stereo not drawn) [bromadiolone, 3-(4′-hydroxy-3′-coumarinyl)-3-phenyl-1-(4′-bromo-4′-biphenyl)-propan-1-ol]	2.0	–
O=c1oc2ccccc2c(O)c1C1CCCc2ccccc21 (stereo not drawn) [coumatetralyl, 3-(1′,2′,3′,4′-tetrahydro-1′-naphthyl)-4-hydroxycoumarin]	–	17* %
